# Measurements reported in PMC9029323, “In Silico Identification of Novel Inhibitors Targeting the Homodimeric Interface of Superoxide Dismutase from the Dental Pathogen Streptococcus mutans” (Antioxidants, 2022).
# Columns and labels:
# SmSOD = target: T1, SmSOD (Streptococcus mutans serotype c, UniProt P09738); test: SOD activity assay (inhibition of cytochrome c reduction, xanthine/xanthine oxidase method) with SmSOD; assay type: biochemical; details: for remaining activity at 50 µM: 50 µM compound; for remaining activity at 50 µM / remaining activity at 100 µM / IC50: ALS-31 derivatives, Table 2; for remaining activity at 50 µM / remaining activity at 100 µM: read-out: Residual SOD Activity (%) in the Presence of [Compound]; for remaining activity at 100 µM: 100 µM compound; for IC50: SmSOD activity, read-out: IC50; for effect on SmSOD activity (in words): screening concentrations or inhibition profile up to 300 µM
# T1 construct: His-tail; made in house; host or cells: Escherichia coli BL21(DE3), vector vSmSOD (pET-22b(+)-derived)
# T1 sequence (P09738 2-203): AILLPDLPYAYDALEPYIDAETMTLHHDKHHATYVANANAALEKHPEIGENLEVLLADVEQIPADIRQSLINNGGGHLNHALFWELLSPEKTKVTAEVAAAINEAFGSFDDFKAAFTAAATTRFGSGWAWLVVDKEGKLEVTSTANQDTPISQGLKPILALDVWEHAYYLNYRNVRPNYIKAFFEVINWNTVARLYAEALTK
# Description: Purified recombinant forms of SmSOD and StSOD were obtained through a heterologous expression system constituted by the Escherichia coli BL21(DE3) strain transformed with appropriate expression vectors, vSmSOD [11] or vStSOD [12]. These pET-22b(+)- or pET-28b(+)-derived plasmids led to the production of recombinant forms of SmSOD or StSOD, respectively fused to a His-tail, useful for their one-step purification by affinity chromatography, as previously described [11, 12]. The improvement of Mn uptake by SmSOD was realised as previously described [11, 12, 13]. The resulting metal (Fe and Mn) content in the cambialistic enzyme was determined by graphite furnace atomic absorption spectrometry with a Shimadzu ACS-6100 auto sampler [46]. Fe-SOD from Escherichia coli (cat. SRP6107) and the Cu/Zn-SOD from bovine erythrocytes (cat. 574594) were purchased from Sigma–Aldrich. A recombinant form of the eukaryal Mn–SOD from rat mitochondria was prepared as previously described [19]. Protein concentration was determined by the Bradford method, using bovine serum albumin as standard [47]. […] One unit of SOD activity was defined as the amount of enzyme that caused 50% inhibition of cytochrome c reduction.
# [1] = system: Streptococcus mutans ATCC-700610; test: Broth micro-dilution antibacterial assay (planktonic growth); assay type: cell-based; details: 24 h
# Protocol: (§1) The bacterial strain used for antimicrobial assays was Streptococcus mutans ATCC-700610. The strain was stored in 15% (v/v) glycerol stocks at −80 °C. Before each experiment, cells were subcultured from the stocks into Trypticase Soy Agar (TSA, cat. PA-254051.06) with 5% Sheep Blood (Becton Dickinson, Sparks, NV, USA) plates at 37 °C in 5% CO2 atmosphere for 48 h.
# The antibacterial activity of compounds ALS-31 or ALS-31-9 was assayed in S. mutans cultures by a standard broth micro-dilution method in 96-well polystyrene plates using Brain-Heart Infusion broth (BHI, cat. 255003, Becton Dickinson, Sparks, NV, USA). One hundred microliters of bacterial suspension adjusted to approximately 1.5 × 10^6 CFU/mL were incubated with 100 µL of serial dilutions of the compounds dissolved in final 1.0% (v/v) DMSO as a vehicle. The plates were incubated at 37 °C in 5% CO2 atmosphere for 24 h under shaking (300 rpm). The medium turbidity was measured by a spectrophotometer at 595 nm (Bio-Rad Laboratories Inc., Hercules, CA, USA). Compound-free wells in 1.0% (v/v) DMSO were used as controls (100% planktonic growth), and antibacterial activity was expressed as a percentage of residual growth. Chlorhexidine acetate (CHX, cat. 51094, Sigma-Aldrich, St. Louis, MO, USA) solution (1 mg/mL) was prepared and included as control for the assay of S. mutans’ susceptibility (MIC referred to [51]). Each compound was tested in triplicate; each experiment was performed twice.
# [2] = system: Streptococcus mutans ATCC-700610; test: Crystal violet staining biofilm biomass assay; assay type: cell-based; details: Streptococcus mutans, ATCC700610, 24 h, read-out: inhibition of biofilm biomass formation
# Protocol: as §1
# The crystal violet (CV) staining method was used to measure biofilm biomass formed in flat-bottomed 96-well microplates in the presence of ALS-31 or ALS-31-9, as described by Stepanović et al., with some modifications. A bacterial suspension of approximately 1.5 × 10^6 CFU/mL in BHI supplemented with 1% (w/v) glucose was prepared, and 100-µL aliquots of this suspension were incubated with 100 µL of serial dilutions of each compound. The microplate was incubated at 37 °C for 24 h, after which the non-adherent cells were gently aspirated and the wells gently rinsed with PBS (Sigma–Aldrich). The adhered biofilm was dried at 60 °C for 30 min and subsequently stained with 0.1% (w/v) crystal violet solution for 30 min. After washing with PBS and solubilization with absolute ethanol to release the dye from the biofilm, the plate was read at 570 nm in a spectrophotometer. The absorbance recorded was related to the amount of biofilm produced. The reduction in the mass of the biofilm was expressed as a percentage by using the formula [(Ac-At)/Ac] × 100, where Ac is the OD570 for the control wells and At is the OD570 in the presence of the tested compound.
Compound,remaining activity at 50 µM (SmSOD),remaining activity at 100 µM (SmSOD),IC50 (SmSOD),effect on SmSOD activity (in words) (SmSOD),further results
CSCCC(NC(=O)COc1cc(C)cc2oc(=O)c3c(c12)CCC3)C(=O)NCCC(=O)O (stereo not drawn) [ALS-31-4],92.6%,96.8%,,,
CC(NC(=O)COc1ccc2c3c(c(=O)oc2c1)CCCC3)C(=O)NCC(=O)NCC(=O)O (stereo not drawn) [ALS-31-5],93.4%,99.6%,,,
CCCC(NC(=O)COc1ccc2c3c(c(=O)oc2c1)CCCC3)C(=O)O (stereo not drawn) [ALS-31-11],83.7%,125%,,,
CSCCC(NC(=O)COc1ccc2c3c(c(=O)oc2c1)CCC3)C(=O)O (stereo not drawn) [ALS-31-1],104%,97.2%,,,
O=C(O)CCCNC(=O)COc1ccc2c3c(c(=O)oc2c1)CCCC3 [ALS-31-6],75.1%,78%,127 ± 12 µM,dose-dependent reduction,
O=C(O)CCC(NC(=O)COc1ccc2c3c(c(=O)oc2c1)CCC3)C(=O)O (stereo not drawn) [ALS-31-2],89.8%,113%,,,
O=C(O)CCNC(=O)COc1ccc2c3c(c(=O)oc2c1)CCCC3 [ALS-31-7],95.4%,125%,,,
O=C(O)CNC(=O)CNC(=O)COc1ccc2c3c(c(=O)oc2c1)CCCC3 [ALS-31-12],75.6%,125%,,,
CSCCC(NC(=O)CCNC(=O)COc1ccc2c3c(c(=O)oc2c1)CCC3)C(=O)O (stereo not drawn) [ALS-31-3],78.8%,104%,,,
CSCCC(NC(=O)CCNC(=O)COc1cc2oc(=O)c3c(c2cc1C)CCCC3)C(=O)O (stereo not drawn) [ALS-31-8],69.2%,76.9%,292 ± 30 µM,dose-dependent reduction,
CSCCC(NC(=O)COc1ccc2c3c(c(=O)oc2c1)CCCC3)C(=O)O (stereo not drawn) [ALS-31-10],75%,68.9%,139 ± 8 µM,dose-dependent reduction,
CCCC(NC(=O)COc1ccc2c3c(c(=O)oc2c1)CCCC3)C(=O)NCCCC(=O)O (stereo not drawn) [ALS-31-9],65.3%,50.3%,64 ± 15 µM,dose-dependent reduction,improved inhibition power on SmSOD compared to lead ALS-31 (SmSOD; ratio of IC50 values): 2.5 fold; percentage of planktonic growth of S. mutans ([1]; 54 µM): 79.0 ± 4.6%; percentage of planktonic growth of S. mutans ([1]; 108 µM): 39.5 ± 2.1%; planktonic growth of S. mutans compared with 108 µM ([1]; 216 µM): no further reduction; concentration up to which no antimicrobial activity is displayed in S. mutans suspensions [1]: ≤ 25 µM; inhibition at 13.5 µM ([2]; 13.5 µM): 29.4%; inhibition at 27.3 µM ([2]; 27.3 µM): 62.1%
